Earlier results as cited in patent EP1398318A1, “Process for conducting chemical reactions in a liquid phase in the presence of a catalyst and a 1,3-substituted imidazolium salt” (BASF AKTIENGESELLSCHAFT, priority 2002, dated 2004).

Target: menschlichen Myeloperoxidase (Homo sapiens, UniProt P05164)
Settings: competitive with hydrogen peroxide at the active centre

Sequence of menschlichen Myeloperoxidase (P05164 279-745 limits assumed): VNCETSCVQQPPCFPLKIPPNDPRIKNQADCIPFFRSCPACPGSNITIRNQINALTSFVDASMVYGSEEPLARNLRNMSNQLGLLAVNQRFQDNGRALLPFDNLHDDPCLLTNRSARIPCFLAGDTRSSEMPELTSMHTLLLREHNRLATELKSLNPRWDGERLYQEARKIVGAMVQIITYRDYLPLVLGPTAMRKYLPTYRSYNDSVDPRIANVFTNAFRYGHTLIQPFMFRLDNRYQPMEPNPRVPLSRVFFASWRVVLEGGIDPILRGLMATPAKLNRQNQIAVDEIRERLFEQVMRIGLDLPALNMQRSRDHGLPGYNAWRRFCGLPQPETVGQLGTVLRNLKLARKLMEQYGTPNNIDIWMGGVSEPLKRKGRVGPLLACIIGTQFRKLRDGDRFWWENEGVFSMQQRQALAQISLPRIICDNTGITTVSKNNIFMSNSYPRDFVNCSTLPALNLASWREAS
Sequence of menschlichen Myeloperoxidase (P05164 165-278 limits assumed): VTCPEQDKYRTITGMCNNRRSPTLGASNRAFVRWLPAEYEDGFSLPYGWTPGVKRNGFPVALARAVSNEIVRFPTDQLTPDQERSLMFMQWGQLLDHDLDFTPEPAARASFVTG

Cl [Chlorid]
bindet kompetitiv zu Wasserstoffperoxid am aktiven Zentrum des Enzyms: inhibierend
